According to article PMC11131246, “Molecular determinants for brain targeting by peptides: a meta-analysis approach with experimental validation” (Fluids and Barriers of the CNS, 2024):
Like-named read-outs stand apart in the source and are kept apart here. Residues, ends and D or L forms follow the SMILES beside them. No end group written: not given here. *: point of attachment. NODAGA = O=C(O)CN1CCN(CC(=O)O)CCN(C(CCC(=O)*)C(=O)O)CC1

Legend:
[1] = Biodistribution of 67Ga-radiolabeled peptides; parameters: species or system mouse; conditions: female, in vivo, iv, 100 uCi, total radioactivity, mean ± SD, n = 3; for tissue uptake at 1 h / tissue uptake at 2 min: CD1, mouse, i.v. tail vein; for tissue uptake at 2 min: 2 min post injection
Description: All animal experiments were performed in compliance with national and EU legislation for good practices on laboratory animal science. The animals were housed in a temperature and humidity-controlled environment with a 12 h light/12 h dark schedule. Biodistribution of radiolabeled peptides was performed on 7 weeks old CD1 female mice.
Animals were intravenously injected into the tail vein with 100 µL of a 25 µM saline solution of the ^67Ga-peptide with a radioactivity around 100 µCi. The mice were euthanized by cervical dislocation at 2 min and 1 h after injection. The dose administered and the radioactivity in the euthanized animals was measured using a dose calibrator (Carpintec CRC-15W, Ramsey, USA). The difference between the radioactivity in the injected and the euthanized animals was assumed to be due to excretion. Brain and tissues of interest without previous perfusion were dissected, washed, and weighed, and their radioactivity was measured using a γ counter (Hidex AMG, Hidex, Turku, Finland). The uptake in the brain and tissues of interest was calculated and expressed as a percentage of injected radioactivity dose per gram of tissue (% ID/g).

[2] = Analytical RP-HPLC retention time (used as indication of hydrophobicity); type: physicochemical; conditions: separate analytical RP-HPLC coupled to a γ-detector; 67Ga-NODA-GA labelled peptides
[3] = Cytotoxicity, CellTiter-Blue cell viability assay; type: cell-based; conditions: human
Description: (§1) Peptide cytotoxicity was determined using the CellTiter-Blue® cell viability assay, following a described protocol. Briefly, all cell lines were carefully harvested with trypsin–EDTA and seeded 10.000–20.000 cells/100 μL into 96-well clear flat-bottomed polystyrene plates (Corning, USA) for 24 h. After medium removal, cells were washed twice with 1X PBS, and 100 µL of previously diluted peptides (range from 0.05–100.0 µM) in the respective medium were added to cells. Then, after 24 h, cells were washed twice with 1X PBS and 20 µL of CellTiter-Blue® Reagent (diluted in 100 µL of medium) was added to each well and incubated for 3 h in culturing conditions. The fluorescence intensity was measured using Varioskan™ LUX multimode microplate reader.
(§2) IC50 values were determined using GraphPad Prism 7.0 software using a log(inhibitor) versus normalized response. Experiments were performed in triplicates on different days using three independently grown cell cultures.

[4] = Cytotoxicity, CellTiter-Blue cell viability assay; type: cell-based; conditions: human; remark: listed apart in the source
Description: as §1, §2

[5] = Cytotoxicity, CellTiter-Blue cell viability assay; type: cell-based; conditions: human; remark: listed apart in the source
Description: as §1, §2

[6] = Cytotoxicity, CellTiter-Blue cell viability assay; type: cell-based; conditions: human; remark: listed apart in the source
Description: as §1, §2

[7] = Cytotoxicity, CellTiter-Blue cell viability assay; type: cell-based; conditions: human; remark: listed apart in the source
Description: as §1, §2

HBEC-5i cells = test: Translocation across in vitro BBB model (HBEC-5i monolayer, transwell); type: in vitro ADME, human; conditions: HBEC-5i monolayer on AF-coated PET transwell inserts (1.0 µm pores), 8 days, CF-peptide 5.0 µM in DMEM:F12 without phenol red added to apical side, 24 h, fluorescence, plate reader, mean ± SD, triplicates of three independent experiments
Description: Throughout 8 days, medium was changed every other day. On the day of the experiment, cells were washed twice with 1X PBS (137.0 mM NaCl, 2.7 mM KCl, 10.0 mM Na2HPO4, and 1.8 mM KH2PO4), and once with DMEM:F12 without phenol red. Then, CF-peptides (5.0 μM, in DMEM:F12 without phenol red) were added to the apical side of the in vitro BBB model and incubated for 24 h. Finally, samples from the apical and basolateral side were collected and fluorescence intensity analyzed using a Varioskan^TM LUX multimode microplate reader (Thermo Fisher, Spain). […] Experiments were performed in triplicates on different days using three independently grown cell cultures. Seeking experimental support for our hypothesis, we have synthesized and tested in vitro the activity of ten peptides (Table 1), selected among the 14 BBBpS entries by their lowest S score in an OLS ranking.

[8] = CellTiter-Blue, peptides 0.05–100.0 µM, 24 h, triplicates, three independent cultures, read-out: Cytotoxicity IC50 HEK-293
[9] = read-out: Cytotoxicity IC50 HBEC-5i
[10] = CellTiter-Blue, peptides 0.05–100.0 µM, 24 h, triplicates, three independent cultures
[11] = CellTiter-Blue, peptides 0.05–100.0 µM, 24 h, triplicates, three independent cultures, read-out: Cytotoxicity IC50 HeLa
[12] = CellTiter-Blue, peptides 0.05–100.0 µM, 24 h, triplicates, three independent cultures, read-out: Cytotoxicity IC50 Hs68

CC[C@H](C)[C@H](NC(=O)CNC(=O)[C@H](CCCNC(=N)N)NC(=O)[C@H](Cc1ccc(O)cc1)NC(=O)[C@H](CS)NC(=O)[C@@H](NC(=O)[C@H](CCCNC(=N)N)NC(=O)[C@H](Cc1ccccc1)NC(=O)[C@H](CS)NC(=O)[C@H](Cc1c[nH]c2ccccc12)NC(=O)[C@H](CCCCN)NC(=O)CCC(C(=O)O)N1CCN(CC(=O)O)CCN(CC(=O)O)CC1)C(C)C)C(=O)N[C@@H](CS)C(=O)N[C@@H](Cc1ccc(O)cc1)C(=O)N[C@@H](CCCNC(=N)N)C(=O)N[C@@H](CCCNC(=N)N)C(=O)N[C@@H](CS)C(=O)N[C@@H](CCCNC(=N)N)C(N)=O (stereo partly shown) [67Ga-non-BBBpS_2, metal not drawn] ({NODAGA}-KWCFRVCYRGICYRRCR-NH2)
tissue uptake at 1 h ([1]; blood, 1 h post injection, CD1 female mice, 100 µL of 25 µM 67Ga-peptide, γ counter, read-out: Tissue distribution, Blood): 0.9 ± 0.6 %ID/g | tissue uptake at 2 min ([1]; bone, CD1 mice, read-out: Tissue distribution, Bone): 3.7 ± 0.5 %ID/g | tissue uptake at 1 h ([1]; bone, 1 h post injection, CD1 mice, read-out: Tissue distribution, Bone): 1.6 ± 0.1 %ID/g | tissue uptake at 1 h ([1]; brain without perfusion, 1 h post injection, CD1 female mice, γ counter, read-out: Tissue distribution, Brain (brain uptake)): 0.13 ± 0.03 %ID/g | tissue uptake at 2 min ([1]; heart, CD1 mice, read-out: Tissue distribution, Heart): 6 ± 0.8 %ID/g | tissue uptake at 1 h ([1]; heart, 1 h post injection, CD1 mice, read-out: Tissue distribution, Heart): 1.7 ± 0.1 %ID/g | tissue uptake at 2 min ([1]; intestine, CD1 mice, read-out: Tissue distribution, Intestine): 2.7 ± 0.7 %ID/g | tissue uptake at 1 h ([1]; intestine, 1 h post injection, CD1 mice, read-out: Tissue distribution, Intestine): 1.6 ± 0.5 %ID/g | tissue uptake at 2 min ([1]; kidney, CD1 mice, read-out: Tissue distribution, Kidney): 19.9 ± 0.4 %ID/g | tissue uptake at 1 h ([1]; kidney, 1 h post injection, CD1 mice, read-out: Tissue distribution, Kidney): 5.4 ± 0.8 %ID/g | tissue uptake at 2 min ([1]; liver, CD1 mice, read-out: Tissue distribution, Liver): 19.8 ± 0.7 %ID/g | tissue uptake at 1 h ([1]; liver, 1 h post injection, CD1 mice, read-out: Tissue distribution, Liver): 22.8 ± 10.1 %ID/g | tissue uptake at 2 min ([1]; lung, CD1 mice, read-out: Tissue distribution, Lung): 7.6 ± 1.5 %ID/g | tissue uptake at 1 h ([1]; lung, 1 h post injection, CD1 mice, read-out: Tissue distribution, Lung): 2.4 ± 0.7 %ID/g | tissue uptake at 2 min ([1]; muscle, CD1 mice, read-out: Tissue distribution, Muscle): 1.8 ± 0.5 %ID/g | tissue uptake at 1 h ([1]; muscle, 1 h post injection, CD1 mice, read-out: Tissue distribution, Muscle): 1.2 ± 0.4 %ID/g | tissue uptake at 2 min ([1]; spleen, CD1 mice, read-out: Tissue distribution, Spleen): 5.6 ± 0.4 %ID/g | tissue uptake at 1 h ([1]; spleen, 1 h post injection, CD1 mice, read-out: Tissue distribution, Spleen): 3.7 ± 1.8 %ID/g | tissue uptake at 2 min ([1]; stomach, CD1 mice, read-out: Tissue distribution, Stomach): 2.1 ± 0.6 %ID/g | tissue uptake at 1 h ([1]; stomach, 1 h post injection, CD1 mice, read-out: Tissue distribution, Stomach): 1.7 ± 0.6 %ID/g | excretion (% injected dose) ([1]; mouse, 1 h post injection, difference between radioactivity injected and in the euthanized animal, CD1 mice): 13.5 ± 5.1 %ID | HPLC tR [2]: 12.99 min

CSCC[C@H](NC(=O)[C@H](CC(C)C)NC(=O)CNC(=O)[C@H](Cc1ccccc1)NC(=O)[C@H](Cc1ccccc1)NC(=O)[C@H](CCC(N)=O)NC(=O)[C@H](CCC(N)=O)NC(=O)[C@@H]1CCCN1C(=O)[C@H](CCCCN)NC(=O)[C@@H]1CCCN1C(=O)[C@@H](N)CCCN=C(N)N)C(N)=O [BBBpS_10]
IC50 at 24 h [3]: > 100 µM | IC50 at 24 h [4]: > 100 µM | IC50 at 24 h [5]: > 100 µM | IC50 at 24 h [6]: > 100 µM | IC50 at 24 h [7]: > 100 µM

AGILKRW [PepH3, well-tested BBBpS standard, reference compound]
Translocation (%) HBEC-5i (HBEC-5i cells): 54.0 ± 2.2%

APWHLSSQYSRT-NH2 [BBBpS_4]
IC50 at 24 h [3]: > 100 µM | IC50 at 24 h [4]: > 100 µM | IC50 at 24 h [5]: > 100 µM | IC50 at 24 h [6]: > 100 µM | IC50 at 24 h [7]: > 100 µM

EEGRLYMRYYSPTTRRYG-NH2 [BBBpS_3]
IC50 at 24 h [3, 8]: > 100 µM | IC50 at 24 h [4, 9]: > 100 µM | IC50 at 24 h [5, 10]: > 100 µM | IC50 at 24 h [6, 11]: > 100 µM | IC50 at 24 h [7, 12]: > 100 µM | Translocation (%) HBEC-5i (HBEC-5i cells): 35.7 ± 3.6%

HIQLSPFSQSWR-NH2 [BBBpS_5]
IC50 at 24 h [3]: > 100 µM | IC50 at 24 h [4]: > 100 µM | IC50 at 24 h [5]: > 100 µM | IC50 at 24 h [6]: > 100 µM | IC50 at 24 h [7]: > 100 µM

KKKKQPPKPKKPKTQEKKKKQPPKPKR-NH2 [non-BBBpS_1]
IC50 at 24 h [3, 8]: > 100 µM | IC50 at 24 h [4, 9]: > 100 µM | IC50 at 24 h [5, 10]: > 100 µM | IC50 at 24 h [6, 11]: > 100 µM | IC50 at 24 h [7, 12]: > 100 µM | Translocation (%) HBEC-5i (HBEC-5i cells): 20.0 ± 3.5%

KYKGAIIGNIK-NH2 [BBBpS_1]
IC50 at 24 h [3]: > 100 µM | IC50 at 24 h [4]: > 100 µM | IC50 at 24 h [5]: > 100 µM | IC50 at 24 h [6]: > 100 µM | IC50 at 24 h [7]: > 100 µM

KYRSGAITIGY-NH2 [BBBpS_2]
IC50 at 24 h [3]: > 100 µM | IC50 at 24 h [4]: > 100 µM | IC50 at 24 h [5]: > 100 µM | IC50 at 24 h [6]: > 100 µM | IC50 at 24 h [7]: > 100 µM

LKTLTETLKELTKTLTEL-NH2 [BBBpS_7]
IC50 at 24 h [3]: > 100 µM | IC50 at 24 h [4]: > 100 µM | IC50 at 24 h [5]: > 100 µM | IC50 at 24 h [6]: > 100 µM | IC50 at 24 h [7]: > 100 µM

NRPDSAQFWLHH-NH2 [BBBpS_9]
IC50 at 24 h [3]: > 100 µM | IC50 at 24 h [4]: > 100 µM | IC50 at 24 h [5]: > 100 µM | IC50 at 24 h [6]: > 100 µM | IC50 at 24 h [7]: > 100 µM

YDEEGGGE-NH2 [non-BBBpS_3]
IC50 at 24 h [3]: > 100 µM | IC50 at 24 h [4]: > 100 µM | IC50 at 24 h [5]: > 100 µM | IC50 at 24 h [6]: > 100 µM | IC50 at 24 h [7]: > 100 µM

YKEATSTFTNITYRGT-NH2 [BBBpS_8]
IC50 at 24 h [3]: > 100 µM | IC50 at 24 h [4]: > 100 µM | IC50 at 24 h [5]: > 100 µM | IC50 at 24 h [6]: > 100 µM | IC50 at 24 h [7]: > 100 µM

YTQDFNKFHTFPQTAIGVGAP-NH2 [BBBpS_6]
IC50 at 24 h [3]: > 100 µM | IC50 at 24 h [4]: > 100 µM | IC50 at 24 h [5]: > 100 µM | IC50 at 24 h [6]: > 100 µM | IC50 at 24 h [7]: > 100 µM
